Data reported in patent publication US20250177406A1, “PHARMACEUTICAL COMPOSITION FOR TREATING TUMORS” (Eisai R&D Management Co., Ltd., priority 2022, published 2025).
Where two headings read alike, the source gives them in different places.

Assays:
[1] = tested on: xenograft model with the KRAS G12C mutation-positive human non-small cell lung cancer cell line NCI-H358; experiment: Antitumor effect of combined administration with adagrasib in xenograft model (tumor volume); assay type: in vivo, nude mice; design: unit not given beside the values; settings: adagrasib 10 mg/kg, once per day, oral
Experimental: Experimental conditions for drug efficacy test using mice with different cell lines (suspension media, cell counts for transplantation, lineages of mice, administered drugs, days of initiation of administration, test periods) were shown in Table 5. Each cell line was prepared with suspension medium to reach an intended cell count for transplantation, and the resulting suspension was subcutaneously transplanted into nude mice (6-week-old, female) at the body flank.
The long diameter and short diameter of tumors generated in each mouse were measured with a Digimatic Caliper (manufactured by Mitutoyo Corp.) twice a week from day 1 as the day of initiation of administration to the final day of the test.
The tumor volume was calculated by the following formula.
Numbers in Table 6 each indicate mean±standard error (SEM) of tumor volume. In the test carried out, six mice were used per group.

[2] = tested on: xenograft model with the KRAS G12C mutation-positive human non-small cell lung cancer cell line NCI-H358; settings: sotorasib 100 mg/kg, once per day, oral
Experimental: Matrigel/HBSS (50:50) was added to a KRAS G12C mutation-positive human non-small cell lung cancer cell line, NCI-358 cells, to prepare a cell suspension of 8×10^6 cells. The cell suspension was subcutaneously transplanted into nude mice (CAnN.Cg-Foxn1 nu/CrlCrlj, from Charles River Laboratories Japan, Inc.) at the body flank. Six mice were used per group. The date of transplantation was defined as day 1. […] No drug was administered to the control group.
The date of the initiation of administration was defined as day 1. On days 4, 8, 11, and 15, the long diameter and short diameter of tumors generated in each mouse were measured with a Digimatic Caliper (manufactured by Mitutoyo Corp.).

[3] = tested on: xenograft model with the KRAS G12C mutation-positive human colorectal cancer cell line SW837; settings: sotorasib 100 mg/kg, once per day, oral
[4] = tested on: xenograft model with the KRAS G12C mutation-positive human bladder cancer cell line UM-UC-3; settings: UM-UC-3 xenograft, E7386 25 mg/kg, sotorasib 100 mg/kg, once per day, oral
[5] = tested on: KRAS G12D mutation-positive human bile duct cancer cell line SNU-869; experiment: Cell growth inhibitory activity of combined treatment, ultra-low adsorption plate, CellTiter-Glo 3D, 5 days; assay type: cell-based; settings: 120 h, SNU-869, MRTX1133 alone
Experimental: (§1) With different KRAS mutation-positive cell lines, combined treatment of the compound represented by formula (I) and a KRAS inhibitor was evaluated on growth inhibitory activity. […] Cells were seeded in 96-well flat-bottomed ultra-low adsorption plate (manufactured by Corning Incorporated) at 5000 cells/well, and cultured at 5% CO2 and 37° C. for 1 day. […] The drug solutions were prepared by diluting their DMSO stocks with medium to specific concentrations, and added in such a manner that the volume of the culture medium reached 100 μL/well after addition of the drugs. After the culture for 5 days, 30 μL of CellTiter-Glo 3D Reagent (manufactured by Promega Corporation) was added to each well and reacted under shading for 30 minutes, and 50-μL portions were then transferred into a separate white 96-well plate (manufactured by Greiner Bio-One International GmbH), and the emission intensity of luciferase was measured with a plate reader (manufactured by PerkinElmer, Inc.). The measurement values were defined as the relative cell counts.

[6] = tested on: KRAS G12D mutation-positive human endometrial cancer cell line HEC-1-B; experiment: as above; assay type: cell-based; settings: 120 h, MRTX1133 alone
Experimental: as §1

| GI50 [5] [nM] | GI50 [6] [nM] | Structure (SMILES) | tumor volume, mean ± SEM ([1]; Day 4, E7386 25 mg/kg) | tumor volume, mean ± SEM ([1]; Day 8, E7386 25 mg/kg) | tumor volume, mean ± SEM ([1]; Day 11, E7386 25 mg/kg) | tumor volume, mean ± SEM ([1]; Day 15, E7386 25 mg/kg) | tumor volume, mean ± SEM ([1]; Day 18, E7386 25 mg/kg) | tumor volume, mean ± SEM ([2]; Day 11, E7386 25 mg/kg) | tumor volume, mean ± SEM ([2]; Day 15, E7386 25 mg/kg) | tumor volume, mean ± SEM ([3]; Day 5, E7386 25 mg/kg) | tumor volume, mean ± SEM ([3]; Day 12, E7386 25 mg/kg) | tumor volume, mean ± SEM ([4]; Day 5) | tumor volume, mean ± SEM ([4]; Day 12) | tumor volume, mean ± SEM ([4]; Day 15) |
| --- | --- | --- | --- | --- | --- | --- | --- | --- | --- | --- | --- | --- | --- | --- |
|  |  | C=CCN1CC(=O)N2[C@@H](Cc3ccc(O)cc3F)C(=O)N(Cc3cccc(N4CC(N5CCN(CC)CC5)C4)n3)C[C@@H]2N1C(=O)NCc1ccccc1 [E7386, (6S,9aS)-N-benzyl-8-((6-(3-(4-ethylpiperazin-1-yl)azetidin-1-yl)pyridin-2-yl)methyl)-6-((2-fluoro-4-hydroxyphenyl)methyl)-4,7-dioxo-2-(prop-2-en-1-yl)-octahydro-1H-pyrazino[2,1-c][1,2,4]triazine-1-carboxamide] | 251.2 ± 8.1 | 327.4 ± 24.9 | 445.0 ± 26.3 | 579.1 ± 45.1 | 729.2 ± 56.7 | 519.9 ± 34.1 | 714.4 ± 55.5 | 221.5 ± 9.5 | 340.9 ± 17.5 | 337.4 ± 20.9 | 1487.0 ± 59.7 | 2526.8 ± 123.1 |
| 1.79 | 5.37 | C#Cc1c(F)ccc2cc(O)cc(-c3ncc4c(N5CC6CCC(C5)N6)nc(OC[C@@]56CCCN5C[C@@H](F)C6)nc4c3F)c12 [MRTX1133, 4-(4-((1R,5S)-3,8-diazabicyclo[3.2.1]octan-3-yl)-8-fluoro-2-(((2R,7aS)-2-fluorohexahydro-1H-pyrrolidin-7a-yl)methoxy)pyrodo[4,3-d]pyrimidin-7-yl)-5-et hynyl-6-fluoronaphthalen-2-ol] |  |  |  |  |  |  |  |  |  |  |  |  |
